Results on 33 compounds are retold here after patent US20240150377A1, “MODULATORS OF CYSTIC FIBROSIS TRANSMEMBRANE CONDUCTANCE REGULATOR” (VERTEX PHARMACEUTICALS INCORPORATED, priority 2020, published 2024).

This test addresses T1, CFTR (Homo sapiens, UniProt P13569, DEL508-508).
T1 construct: endogenous in cells; host or cells: primary human bronchial epithelial cells from CF subjects (F508del/MF-HBE), differentiated at air-liquid interface
The experiment in a line: HBE assay: Ussing chamber assay of CFTR-mediated short-circuit currents. It is filed as cell-based. The conditions noted are these: for EC50: read-out: HBE EC50; for activation at 10 µM: read-out: HBE Activity at 10 μM (%). An outline of the steps: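 CFTR-mediated Isc (μA/cm²) equals the peak response to apical 20 μM forskolin minus the residual after a 20 μM each BPO/GlyH-101/CFTR inhibitor 172 cocktail, recorded in Ussing chambers at Vhold 0 mV, 37 °C, pH 7.4, with 30 μM apical amiloride. Cells were F508del/MF HBE cultures preincubated 18-24 h with corrector (concentration range or 10 μM) plus 1 μM ivacaftor in 20% human serum.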

Setting [1] is: Table 13, read-out: HBE Max Activity (%).
Setting [2] is: HBE assay, read-out: HBE Max activity (%).

Each structure is given as a SMILES string. Read-outs that look alike come from different tables or passages of the source.

T1 sequence (P13569 with tags, fused parts or gaps DEL508-508): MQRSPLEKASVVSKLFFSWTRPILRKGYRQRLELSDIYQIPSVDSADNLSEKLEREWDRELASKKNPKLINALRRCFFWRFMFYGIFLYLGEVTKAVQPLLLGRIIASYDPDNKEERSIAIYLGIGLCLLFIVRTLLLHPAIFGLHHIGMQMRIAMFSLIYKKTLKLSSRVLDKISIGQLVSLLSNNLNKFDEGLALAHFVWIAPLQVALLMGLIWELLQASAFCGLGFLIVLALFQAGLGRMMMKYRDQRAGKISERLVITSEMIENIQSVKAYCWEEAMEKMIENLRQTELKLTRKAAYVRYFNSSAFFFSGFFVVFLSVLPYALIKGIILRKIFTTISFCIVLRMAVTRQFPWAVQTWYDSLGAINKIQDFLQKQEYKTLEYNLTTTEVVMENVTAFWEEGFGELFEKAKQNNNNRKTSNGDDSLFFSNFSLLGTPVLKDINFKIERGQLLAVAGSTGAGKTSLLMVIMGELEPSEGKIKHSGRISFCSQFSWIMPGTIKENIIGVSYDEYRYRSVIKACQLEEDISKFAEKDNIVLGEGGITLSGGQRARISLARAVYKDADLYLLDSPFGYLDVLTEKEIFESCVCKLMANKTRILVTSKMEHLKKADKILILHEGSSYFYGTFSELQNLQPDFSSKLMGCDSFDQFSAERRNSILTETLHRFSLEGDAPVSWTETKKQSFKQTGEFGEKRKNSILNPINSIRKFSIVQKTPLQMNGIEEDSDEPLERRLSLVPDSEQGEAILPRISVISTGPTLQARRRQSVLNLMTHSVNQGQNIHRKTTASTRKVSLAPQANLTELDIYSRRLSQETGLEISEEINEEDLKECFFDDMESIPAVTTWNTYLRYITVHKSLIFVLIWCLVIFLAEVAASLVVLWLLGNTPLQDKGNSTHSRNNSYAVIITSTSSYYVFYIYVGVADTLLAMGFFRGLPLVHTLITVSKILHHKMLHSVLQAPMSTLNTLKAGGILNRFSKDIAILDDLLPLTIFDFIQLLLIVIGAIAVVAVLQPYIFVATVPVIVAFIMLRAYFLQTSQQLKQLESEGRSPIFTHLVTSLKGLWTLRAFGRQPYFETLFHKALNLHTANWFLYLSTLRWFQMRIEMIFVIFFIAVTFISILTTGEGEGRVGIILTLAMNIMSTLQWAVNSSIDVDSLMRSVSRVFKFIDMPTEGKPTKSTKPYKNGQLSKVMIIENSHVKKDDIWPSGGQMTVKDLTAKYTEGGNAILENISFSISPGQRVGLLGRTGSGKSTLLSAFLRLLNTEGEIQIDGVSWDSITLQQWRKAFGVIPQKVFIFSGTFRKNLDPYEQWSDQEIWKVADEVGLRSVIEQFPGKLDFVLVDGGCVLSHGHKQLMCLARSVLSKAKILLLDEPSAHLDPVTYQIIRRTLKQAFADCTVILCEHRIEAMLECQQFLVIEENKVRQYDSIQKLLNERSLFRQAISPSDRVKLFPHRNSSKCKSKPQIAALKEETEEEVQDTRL

Take `COCCN(c1cccc(CN2C(=O)c3cccc(n3)S(=O)(=O)Nc3nc(cc(-c4c(C)cccc4C)n3)OC[C@H]2CC(C)(C)C)n1)C(C)C` [Compound 1142]: the EC50 (as a rule, the midpoint of the concentration-response curve) (Table 13) was in the range of 1 to 3 µM. Moreover, the Emax under setting [1] was more than 60%.

As for `Cc1cccc(C)c1-c1cc2nc(n1)NS(=O)(=O)c1cccc(n1)C(=O)N(Cc1cccc(N(C)C3CC4(CC4)C3)n1)[C@H](CC(C)(C)C)CO2` [Compound 1143], the 50% effective concentration (EC50) (Table 13) is less than 1 µM. In addition, the Emax under setting [1] was more than 60%.

Consider `Cc1cccc(C)c1-c1cc2nc(n1)NS(=O)(=O)c1cccc(n1)C(=O)N(Cc1cccc(NCC(C)(C)C)n1)[C@H](CC(C)(C)C)CO2` [Compound 1144], for which the concentration for a half-maximal effect (EC50) (Table 13) was less than 1 µM. For the same compound, under setting [1], the Emax was more than 60%.

With `Cc1cccc(C)c1-c1cc2nc(n1)NS(=O)(=O)c1cccc(c1)C(=O)N(Cc1ncc(N3CC(C)(C)OC(C)(C)C3)cn1)[C@H](CC(C)(C)C)CO2` [Compound 1145], where the note is “Table 13”, the EC50 is less than 1 µM. In addition, the Emax under setting [1] is more than 60%.

Regarding `Cc1cccc(C)c1-c1cc2nc(n1)NS(=O)(=O)c1cccc(c1)C(=O)N(Cc1ncc(N3CCOC4(CCC4)C3)cn1)[C@H](CC(C)(C)C)CO2` [Compound 1146], the concentration giving a half-maximal response (EC50) (Table 13) is less than 1 µM. The Emax under setting [1] is more than 60%.

In the case of `Cc1cccc(C)c1-c1cc2nc(n1)NS(=O)(=O)c1cccc(c1)C(=O)N(Cc1ncc(N3CCSCC3)cn1)[C@H](CC(C)(C)C)CO2` [Compound 1147], the EC50 (Table 13) was less than 1 µM. Moreover, the Emax under setting [1] was more than 60%.

For the compound `Cc1cccc(C)c1-c1cc2nc(n1)NS(=O)(=O)c1cccc(c1)C(=O)N(Cc1ncc(N3CCOC4(CC4)C3)cn1)[C@H](CC(C)(C)C)CO2` [Compound 1148], the EC50 (Table 13) is less than 1 µM. The Emax under setting [1] is more than 60%.

Consider `Cc1cccc(C)c1-c1cc2nc(n1)NS(=O)(=O)c1cccc(c1)C(=O)N(Cc1ccc([C@@H](O)CO)cn1)[C@H](CC(C)(C)C)CO2` [Compound 1150], for which the EC50 (Table 13) is less than 1 µM.

Turning to `Cc1cccc(C)c1-c1cc2nc(n1)NS(=O)(=O)c1cccc(c1)C(=O)N(Cc1ccc([C@@H](O)CO)cn1)[C@H](CC(C)(C)C)CO2` [Compound 1151], for the setting “Table 13”, the EC50 was 1 to 3 µM. In addition, the Emax under setting [1] is more than 60%.

With `Cc1cccc(C)c1-c1cc2nc(n1)NS(=O)(=O)c1cccc(c1)C(=O)N(Cc1ncc([C@@H](O)CO)cn1)[C@H](CC(C)(C)C)CO2` [Compound 1152], the EC50 (Table 13) was less than 1 µM.

Take `Cc1cccc(C)c1-c1cc2nc(n1)NS(=O)(=O)c1cccc(c1)C(=O)N(Cc1ncc([C@@H](O)CO)cn1)[C@H](CC(C)(C)C)CO2` [Compound 1153]: the half-maximal effective concentration (EC50) (Table 13) lay in the range of 1 to 3 µM. Also, the Emax under setting [1] was more than 60%.

`Cc1cccc(C)c1-c1cc2nc(n1)NS(=O)(=O)c1cccc(c1)C(=O)N(Cc1ccc3c(n1)N1CCOCC1C(C)C3)[C@H](CC(C)(C)C)CO2` (stereo partly shown) [Compound 1154]: the EC50 (Table 13) was less than 1 µM. Also, the Emax under setting [1] was more than 60%.

For `Cc1cccc(C)c1-c1cc2nc(n1)NS(=O)(=O)c1cccc(c1)C(=O)N(Cc1nccc(N(C)CC(C)(C)C)c1F)[C@H](CC(C)(C)C)CO2` [Compound 1155], the EC50 (Table 13) is 1 to 3 µM. In addition, the Emax under setting [1] was more than 60%.

Consider `Cc1cccc(C)c1-c1cc2nc(n1)NS(=O)(=O)c1cccc(c1)C(=O)N(Cc1ncc(N3CCOC(C)(C)C3)cn1)[C@H](CC(C)(C)C)CO2` [Compound 1156], for which, where the note is “Table 13”, the 50% effective concentration (EC50) was less than 1 µM. In addition, under setting [1], the Emax is more than 60%.

Regarding `Cc1cccc(C)c1-c1cc2nc(n1)NS(=O)(=O)c1cccc(c1)C(=O)N(Cc1ncc(OC3CCC3)cc1F)[C@H](CC(C)(C)C)CO2` [Compound 1299, (11R)-12-[[5-(Cyclobutoxy)-3-fluoro-2-pyridyl]methyl]-6-(2,6-dimethylphenyl)-11-(2,2-dimethylpropyl)-2,2-dioxo-9-oxa-2λ^6-thia-3,5,12,19-tetrazatricyclo[12.3.1.14,8]nonadeca-1(18),4(19),5,7,14,16-hexaen-13-one], the EC50 (HBE assay) is less than 1 µM. Further, under setting [2], the Emax is more than 60%.

Take `Cc1cccc(C)c1-c1cc2nc(n1)NS(=O)(=O)c1cccc(c1)C(=O)N(Cc1nc(N(C)C3CC4(CC4)C3)ccc1F)[C@H](CC(C)(C)C)CO2` [Compound 1300, (11R)-6-(2,6-Dimethylphenyl)-11-(2,2-dimethylpropyl)-12-[[3-fluoro-6-[methyl(spiro[2.3]hexan-5-yl)amino]-2-pyridyl]methyl]-2,2-dioxo-9-oxa-2λ^6-thia-3,5,12,19-tetrazatricyclo[12.3.1.14,8]nonadeca-1(18),4(19),5,7,14,16-hexaen-13-one]: the EC50 (HBE assay) was less than 1 µM. The Emax under setting [2] was more than 60%.

Take `Cc1cccc(C)c1-c1cc2nc(n1)NS(=O)(=O)c1cccc(c1)C(=O)N(Cc1ncc(O[C@@H](C)C(C)C)cn1)[C@H](CC(C)(C)C)CO2` [Compound 1301, (11R)-6-(2,6-Dimethylphenyl)-12-[[5-[(1S)-1,2-dimethylpropoxy]pyrimidin-2-yl]methyl]-11-(2,2-dimethylpropyl)-2,2-dioxo-9-oxa-2λ^6-thia-3,5,12,19-tetrazatricyclo[12.3.1.14,8]nonadeca-1(18),4(19),5,7,14,16-hexaen-13-one]: the EC50 (HBE assay) was less than 1 µM. Also, the Emax under setting [2] is more than 60%.

In the case of `Cc1cccc(C)c1-c1cc2nc(n1)NS(=O)(=O)c1cccc(c1)C(=O)N(Cc1ccc3c(C4CC4)cn(C)c3n1)[C@H](CC(C)(C)C)CO2` [Compound 1303, (11R)-12-[(3-Cyclopropyl-1-methyl-pyrrolo[2,3-b]pyridin-6-yl)methyl]-6-(2,6-dimethylphenyl)-11-(2,2-dimethylpropyl)-2,2-dioxo-9-oxa-2λ^6-thia-3,5,12,19-tetrazatricyclo[12.3.1.14,8]nonadeca-1(18),4(19),5,7,14,16-hexaen-13-one], the activation at 10 µM (HBE assay) was more than 60%.

On to `Cc1cccc(C)c1-c1cc2nc(n1)NS(=O)(=O)c1cccc(c1)C(=O)N(Cc1ncc(OC(C)C)cn1)[C@H](CC(C)(C)F)CO2` [Compound 1308, (11R)-6-(2,6-Dimethylphenyl)-11-(2-fluoro-2-methyl-propyl)-12-[(5-isopropoxypyrimidin-2-yl)methyl]-2,2-dioxo-9-oxa-2λ^6-thia-3,5,12,19-tetrazatricyclo[12.3.1.14,8]nonadeca-1(18),4(19),5,7,14,16-hexaen-13-one], for which the activation at 10 µM (HBE assay) is more than 60%.

On to `Cc1cccc(C)c1-c1cc2nc(n1)NS(=O)(=O)c1cccc(c1)C(=O)N(Cc1ncc(N3CC(C)(C)C3)cn1)[C@H](CCC(C)C)CO2` [Compound 1309, (11R)-12-[[5-(3,3-Dimethylazetidin-1-yl)pyrimidin-2-yl]methyl]-6-(2,6-dimethylphenyl)-11-isopentyl-2,2-dioxo-9-oxa-2λ^6-thia-3,5,12,19-tetrazatricyclo[12.3.1.14,8]nonadeca-1(18),4(19),5,7,14,16-hexaen-13-one], for which, under “HBE assay”, the activation at 10 µM was more than 60%.

On to `COCCN(c1ccc(C)c(CN2C(=O)c3cccc(c3)S(=O)(=O)Nc3nc(cc(-c4c(C)cccc4C)n3)OC[C@H]2CC(C)(C)C)n1)C(C)C` [Compound 1343], for which the EC50 (HBE assay) is less than 1 µM. Also, the Emax under setting [2] was more than 60%.

With `COCC(C)Oc1cnc(CN2C(=O)c3cccc(c3)S(=O)(=O)Nc3nc(cc(-c4c(C)cccc4C)n3)OC[C@H]2CC(C)(C)C)nc1` (stereo partly shown) [Compound 1344], the EC50 (HBE assay) is less than 1 µM. Under setting [2], the Emax is more than 60%.

As for `CCC(C)Oc1cnc(CN2C(=O)c3cccc(c3)S(=O)(=O)Nc3nc(cc(-c4c(C)cccc4C)n3)OC[C@H]2CC(C)(C)C)nc1` (stereo partly shown) [Compound 1345], the EC50 (HBE assay) was less than 1 µM. Under setting [2], the Emax was more than 60%.

Consider `Cc1cccc(C)c1-c1cc2nc(n1)NS(=O)(=O)c1cccc(c1)C(=O)N(Cc1cccc(N(C)C3CCOC3)n1)[C@H](CC(C)(C)C)CO2` (stereo partly shown) [Compound 1347], for which the EC50 (HBE assay) is less than 1 µM. The Emax under setting [2] is more than 60%.

Consider `Cc1cccc(C)c1-c1cc2nc(n1)NS(=O)(=O)c1cccc(c1)C(=O)N(Cc1cncc(NC3CCCC34CCC4)n1)[C@H](CC(C)(C)C)CO2` (stereo partly shown) [Compound 1348], for which the EC50 (HBE assay) was less than 1 µM. Moreover, the Emax under setting [2] was more than 60%.

As to `Cc1cccc(C)c1-c1cc2nc(n1)NS(=O)(=O)c1cccc(c1)C(=O)N(Cc1cncc(N(C)C3CCOC3)n1)[C@H](CC(C)(C)C)CO2` (stereo partly shown) [Compound 1349], the EC50 (HBE assay) was less than 1 µM. For the same compound, the Emax under setting [2] was more than 60%.

Turning to `Cc1cccc(C)c1-c1cc2nc(n1)NS(=O)(=O)c1cccc(c1)C(=O)N(Cc1ncc(OC(C)C)cc1C#N)[C@H](CC(C)(C)C)CO2` [Compound 1351], the EC50 (HBE assay) was less than 1 µM. Also, under setting [2], the Emax was more than 60%.

On to `Cc1cccc(C)c1-c1cc2nc(n1)NS(=O)(=O)c1cccc(c1)C(=O)N(Cc1cccc(NC3CCOC3)n1)[C@H](CC(C)(C)C)CO2` (stereo partly shown) [Compound 1352], for which the 50% effective concentration (EC50) (HBE assay) was less than 1 µM. Also, the Emax under setting [2] is more than 60%.

Regarding `Cc1cccc(C)c1-c1cc2nc(n1)NS(=O)(=O)c1cccc(c1)C(=O)N(Cc1cncc(NC3CCOC3)n1)[C@H](CC(C)(C)C)CO2` (stereo partly shown) [Compound 1353], the EC50 (HBE assay) is less than 1 µM. Also, the Emax under setting [2] was more than 60%.

Regarding `Cc1cccc(C)c1-c1cc2nc(n1)NS(=O)(=O)c1cccc(c1)C(=O)N(Cc1cccc(N(C)CC3(C)CC3)n1)[C@H](CC(C)(C)C)CO2` [Compound 1354], the EC50 (HBE assay) is less than 1 µM. For the same compound, under setting [2], the Emax is more than 60%.

Consider `Cc1cccc(C)c1-c1cc2nc(n1)NS(=O)(=O)c1cccc(c1)C(=O)N(Cc1cccc(N(C)C3CCCC3)n1)[C@H](CC(C)(C)C)CO2` [Compound 1355], for which the EC50 (HBE assay) is less than 1 µM. For the same compound, the Emax under setting [2] is more than 60%.

`CCN(C)c1ccnc(CN2C(=O)c3cccc(c3)S(=O)(=O)Nc3nc(cc(-c4c(C)cccc4C)n3)OC[C@H]2CC(C)(C)C)n1` [Compound 1357]: the EC50 (HBE assay) is less than 1 µM. Moreover, under setting [2], the Emax was more than 60%.

For `Cc1cccc(C)c1-c1cc2nc(n1)NS(=O)(=O)c1cccc(c1)C(=O)N(Cc1coc(N3CCOCC3)n1)[C@H](CC(C)(C)C)CO2` [Compound 1358], the EC50 (HBE assay) is less than 1 µM. Besides, under setting [2], the Emax was more than 60%.
